Numbers after ± are expanded uncertainties.
Conditions: Liquid

ClCCCl [1,2-dichloroethane]
mass density [kg/m3]
Conditions	288.15 K	298.15 K
100 kPa	1259.9 ± 0.6	1245.5 ± 0.6
500 kPa	1260.3 ± 0.6	1246.1 ± 0.6
1000 kPa	1260.8 ± 0.6	1246.4 ± 0.6
1500 kPa	1261.2 ± 0.7	1246.9 ± 0.6
2000 kPa	1261.6 ± 0.7	1247.4 ± 0.7
2500 kPa	1262.2 ± 0.7	1247.8 ± 0.7
3100 kPa	1262.7 ± 0.7	1248.5 ± 0.7
3600 kPa	1263.2 ± 0.8	1248.9 ± 0.7
4100 kPa	1263.6 ± 0.8	1249.4 ± 0.7
4600 kPa	1264 ± 0.8	1249.9 ± 0.8
5100 kPa	1264.5 ± 0.8	1250.4 ± 0.8
5600 kPa	1264.9 ± 0.8	1250.9 ± 0.8
6100 kPa	1265.4 ± 0.9	1251.4 ± 0.8
6600 kPa	1265.8 ± 0.9	1251.9 ± 0.9
7100 kPa	1266.2 ± 0.9	1252.3 ± 0.9
7600 kPa	1266.7 ± 0.9	1252.9 ± 0.9
8100 kPa	1267.2 ± 1	1253.2 ± 0.9
8600 kPa	1267.6 ± 1	1253.8 ± 0.9
9200 kPa	1268.2 ± 1	1254.4 ± 1
9600 kPa	1268.6 ± 1	1254.9 ± 1
10000 kPa	–	1255.1 ± 1
10100 kPa	1269 ± 1	–
10600 kPa	1269.4 ± 1.1	1255.9 ± 1
11100 kPa	1269.8 ± 1.1	1256.4 ± 1
11600 kPa	1270.3 ± 1.1	1256.7 ± 1.1
12100 kPa	1270.7 ± 1.1	1257.3 ± 1.1
12600 kPa	1271 ± 1.2	1257.6 ± 1.1
13100 kPa	1271.5 ± 1.2	1258 ± 1.1
13600 kPa	1271.9 ± 1.2	1258.5 ± 1.1
14100 kPa	1272.4 ± 1.2	–
14200 kPa	–	1259 ± 1.2
14700 kPa	1272.9 ± 1.2	1259.4 ± 1.2
15200 kPa	1273.3 ± 1.3	1260 ± 1.2
15700 kPa	1273.7 ± 1.3	1260.5 ± 1.2
16200 kPa	–	1260.8 ± 1.3
16300 kPa	1274.2 ± 1.3	–
16700 kPa	–	1261.4 ± 1.3
16800 kPa	1274.6 ± 1.3	–
17200 kPa	1275 ± 1.4	–
17300 kPa	–	1261.9 ± 1.3
17700 kPa	1275.4 ± 1.4	–
17800 kPa	–	1262.4 ± 1.3
18200 kPa	1275.8 ± 1.4	–
18300 kPa	–	1262.8 ± 1.4
18600 kPa	1276.2 ± 1.4	–
18800 kPa	–	1263.3 ± 1.4
19000 kPa	1276.5 ± 1.4	–
19200 kPa	–	1263.7 ± 1.4
19400 kPa	1276.9 ± 1.5	–
19700 kPa	–	1264.1 ± 1.4
20000 kPa	1277.3 ± 1.5	–
20200 kPa	–	1264.5 ± 1.4
